“Also recorded” adds a separate entry of the source.
Legend:
[1] = test system: normal human melanocytes, UACC62 melanoma cells, and UACC257 melanoma cells; assay: MITF and TRPM1 mRNA expression by qPCR; assay type: cell-based; conditions: for Mitf expression: UACC62 and UACC257 melanoma cells (FIG. 7); for TRPM1 mRNA levels (MITF gene target): delayed relative to MITF induction, 4 uM, over 24 hours; for MITF mRNA expression / Induction of the pigmentation pathway compared with HG 9-91-01: normal human melanocytes; for MITF mRNA expression: UACC62 and UACC257 cells, 3 hours of treatment, relative to RPL11; for Induction of the pigmentation pathway compared with HG 9-91-01: Mitf and TRPM1 mRNA (FIG. 4)
Experimental: Cell Culture. UACC257 and UACC62 cells were grown in RPM1+1% penicillin and streptomycin+5% fetal bovine serum. Normal human melanocytes were grown in TIVA, and starved 24 hours in HAM's F-12+1% penicillin and streptomycin before all molecular experiments.
(§1) qPCR. mRNA was extracted from cells using the RNeasy Mini Kit (Qiagen®). KAPA SYBR® FAST Universal One-Step qRT-PCR Kit (KAPA BIOSYSTEMS®) was used to prepare mRNA samples for qPCR and samples were analyzed using the 7500 Fast Real Time PCR System (Applied Biosystems®). The relative expression of each gene was calculated by 7500 Fast System Software program, which utilizes Ct normalized to mRNA levels of RPL11 to calculate relative expression. Results are reported relative to control cells.

[2] = test system: UACC257 melanoma cells; assay: Cell pelleting experiment (gross pigmentation of cell pellets); assay type: cell-based, human; conditions: 4 uM, 3 days of treatment
Experimental: Cell pelleting experiments. 1×10^5 UACC257 cells were plated per well in a 6-well plate. […] After 3 days, cells were trypsinized with 0.25% trypsin, resuspended in RPMI media, and pelleted. Pellets were washed 1× with PBS and allowed to dry before imaging.

[3] = test system: Mc1r^e/e;K14—Scf mice; assay: Mouse pigmentation experiment, redhair model; assay type: in vivo
Experimental: (§2) Mice. C57BL/6J Mc1r^e/e mice were crossed with K14—Scf transgenic mice. C57BL/6J Tyr^c2j/c2j were crossed with K14—Scf transgenic mice. (Kunisada et al. 1998; D'Orazio et al. 2006).
(§3) Mouse pigmentation experiments. Animals were treated with vehicle control or 37.5 mM HG 9-9-01 until uniform gross darkening was visible as stated in figure legends. Daily differences in darkening of the skin were measured by reflective colorimetry. Skin was harvested, fixed, and processed for paraffin embedding. Sections were cut from paraffin blocks, and sections were stained utilizing hematoxylin and eosin (morphology) and Fontana-Masson (melanin). Melanin dissolution was conducted utilizing NaOH lysis method (Wakamatsu and Ito 2002).
(§4) Colorimeter Measurements: Differences in darkening of the skin were measured by reflective colorimetry (CIE L* white-black color axis) utilizing a CR-400 Colorimeter (Minolta®) calibrated by a calibration plate (C: Y 93.1, x 0.3133, y 0.3194) before each set of measurements.
(§5) To test this, a previously described mouse “redhair” model was utilized which carries the inactivating Mc1r^e/e mutant allele and a transgene, K14—SCF, in which Stem Cell Factor expression is driven by the Keratin-14 promoter allowing for epidermal homing of melanocytes (Kunisada et al. 1998; D'Orazio et al. 2006). Albino mice harboring a mutation in the tyrosinase gene were combined with the K14—Scf transgene (tyr^c/c;K14—Scf mice) and served as controls to evaluate whether the pigmentation afforded by topical SIK inhibitor was dependent upon the canonical tyrosinase-melanin pathway. […] Skin pigmentation remained in its pretreatment state over the next 30 days (FIG. 3A; 3B). […] These findings combined with the small molecule and lipophilic nature of the SIK inhibitors led us to investigate the use of SIK inhibitors for topical eumelanization of human skin.

[4] = test system: Tyr^c/c;K14—Scf mice; assay: Mouse pigmentation experiment, albino control mice; assay type: in vivo
Experimental: as §2, §3, §4, §5

[5] = test system: B16 cells; assay: In vitro MITF induction in B16 cells; assay type: cell-based, mouse; conditions: Mus musculus, Table 5
Experimental: as §1
Tables 2 to 5 below show the effects of exemplary […] compounds on skin darkening, including an in vitro test of MITF induction following the same protocol as described above in paragraph 333, wherein exemplary SIK inhibitor compounds were tested for their in vitro induction of MITF.
(§6) Table 5 below additionally provides characteristics of exemplary SIK inhibitor compounds, MITF induction in B16 cells, EC50, log P, and experimental conditions for skin darkening experiments in mice and humans.

[6] = test system: mouse skin; assay: Skin darkening experiments in mice (Table 5); assay type: in vivo; conditions: HG-9-91-01: 2 days, 25 mM, HG-11-136-01: 12 days, HG-11-143-01: 12 days, 25 mM (4 days) −130 mM (8 days)
Experimental: Mouse pigmentation experiments. […] Daily differences in darkening of the skin were measured by reflective colorimetry. Skin was harvested, fixed, and processed for paraffin embedding. Sections were cut from paraffin blocks, and sections were stained utilizing hematoxylin and eosin (morphology) and Fontana-Masson (melanin). Melanin dissolution was conducted utilizing NaOH lysis method (Wakamatsu and Ito 2002).
as §6

[7] = test system: human breast skin explants; assay: Human skin explants: darkening/pigmentation after topical SIK inhibitor; assay type: cell-based; conditions: for Results (skin darkening): Human Skin Explants; for Gross pigmentation of human skin explants / Melanin content, Fontana Masson staining: 37.5 mM; for Gross pigmentation of human skin explants: 8 days (1×/day); for Melanin content, Fontana Masson staining: 8 days, compared to control
Experimental: Image and Colorimeter analysis were conducted 24 hours after the last treatment.
Human pigmentation experiments. Full thickness human breast skin explants were cultured in petri dishes with a solid phase and liquid phase phenol red free DMEM medium with […], 5% fungizone (Gibco®), and 10% FBS. Passive application refers to simply applying the treatment to skin without further rubbing or manipulation. Mechanical application refers to application of agents to skin with further rubbing of treatment with 10 clockwise turns of a gloved cotton swab applicator. Skin was harvested, fixed, and processed for paraffin embedding. Sections were cut from paraffin blocks, and sections were stained utilizing hematoxylin and eosin (morphology) and Fontana-Masson (melanin).

[8] = test system: panel of 468 human kinases; assay: KinomeScan kinome profiling; assay type: binding
Experimental: Kinome Profiling. Kinome profiling was performed using KinomeScan ScanMAX at compound concentration of 1 μM. Protocols are available from DiscoverX®.
(§7) Since there are limitations to topical delivery of drugs into human skin epidermis, novel SIK inhibitors designed to enhance epidermal permeation by reducing the size and increasing the lipophilicity (c Log P) to develop second generation SIK inhibitors YKL 06-061 and YKL 06-062 were derived (FIG. 6) (Bos and Meinardi 2000; Hadgraft and Pugh 1998). […] To assess the kinome selectivity information of new analogs, YKL-06-061 was screened across a panel of 468 human kinases at a concentration of […] using the KinomeScan methodology (DiscoverX). […] As the KinomeScan assays measure binding, enzymatic assays for these targets were also performed either in-house or using the SelectScreen Kinase Profiling Service at Thermo Fisher Scientific (Madison, Wis.).

[9] = biological target: SIKs; assay: Kinase activity in vitro assay (biochemical IC50 against SIKs); set-up: species or system human; conditions: compared with HG 9-91-01 (FIG. 6)
Experimental: Kinase activity in vitro assay. The biochemical activities against SIK2 were measured by Caliper-based mobility shift assay (PerkinElmer®). […] Reactions were quenched by adding 20 mM EDTA (pH 8) after 1 hour, and percentage of substrate conversion was measured by LabChip EZ Reader II (PerkinElmer®). IC50's for SIK2 inhibition were calculated using SmartFit nonlinear regression in Genedata® Screener software suite (Genedata®).
(§8) All other in vitro kinase assay were conducted using the SelectScreen Kinase Profiling Service at Thermo Fisher Scientific® (Madison, Wis.). The protocols are available from Thermo Fisher Scientific® website.

[10] = test system: FRK and SIKs; assay: Enzymatic assays of KinomeScan top hits (in-house or SelectScreen); assay type: biochemical, human
Experimental: as §8, §7

[11] = Table 2, passive topical application

Compound	Mitf expression [1]	TRPM1 mRNA levels (MITF gene target) [1]	MITF mRNA expression [1]	Darkening (Mouse) [6]	Results (skin darkening) [7, 11]	Results (skin darkening) ([7]; Table 4)	Gross pigmentation of human skin explants ([7]; passive topical application)	Melanin content, Fontana Masson staining ([7]; passive topical application)	Induction of the pigmentation pathway compared with HG 9-91-01 [1]	IC50 values for inhibition of SIKs [9]	further results
COc1ccc(N(C(=O)Nc2c(C)cccc2C)c2cc(Nc3ccc(N4CCN(C)CC4)cc3)ncn2)c(OC)c1 [HG 9-91-01]	induces Mitf expression	increased	Dose-dependent increases								Gross pigmentation of cell pellets [2]: Gross pigmentation was observed; Fontana-Masson staining, difference between treatment groups ([3]; 40 days after treatment, Mc1r^e/e;K14—Scf and Tyr^c/c;K14—Scf mice): no differences; Skin morphology, hematoxylin and eosin stain ([3]; 40 days after treatment, all mice): normal morphology; Nuclear capping of melanosomes within epidermal keratinocytes ([3]; Fontana-Masson stained skin sections): Nuclear capping of melanin-laden melanosomes was observed; Time to reversal of darkening after treatment was stopped ([3]; after 6 days of topical treatment): ≤ 10 days; Skin morphology, hematoxylin and eosin staining ([3]; after treatment): normal morphology; Extractable eumelanin, NaOH lysis of skin samples ([3]; compared to all other treatment groups): visible increase in extractable eumelanin; Course of darkening ([3]; topical application, 6 days of treatment): progressive and reversible; also recorded: progressive over 6 days of treatment; Reflective colorimetry (CIE L* white-black color axis) ([3]; topical, daily, 37.5 mM): significant darkening; Gross skin darkening ([3]; topical, daily, 37.5 mM, 30 uL, 6 days / 7 days (FIG. 2)): robust darkening; Melanin production, Fontana-Masson staining ([3]; treated skin areas): strong induction of melanin production; Epidermis morphology, hematoxylin and eosin staining ([4]; after treatment): normal morphology; Pigment induction, Fontana-Masson staining ([4]; albino mice): no pigment induction; Visible change in skin pigmentation ([4]; albino mice, topical, daily, 37.5 mM): No visible change in skin pigmentation; Change of skin colour during and after treatment ([4]; during treatment or 14 days after treatment was stopped): No change
COc1ccc(N(C(=O)Nc2c(C)cccc2C)c2cc(Nc3ccc(N4CCN(C)CC4)cc3)ncn2)c(OC)c1 [HG-9-91-01]				Darkens							EC50 ([5]; readout not given, presumably mitf induction in B16 cells): 16 nM
COc1ccc(N2C(=O)N(c3c(C)cccc3C)Cc3cnc(Nc4ccc(N5CCN(C)CC5)cc4)nc32)c(OC)c1 [HG-11-136-01]				Darkens							maximal fold induction ([5]; B16 cells, read-out: Highest fold mitf induction in B16 cells): 6.1
COc1cc(N2CCN(C)CC2)ccc1Nc1ncc2c(n1)N(C1CCC1)C(=O)N(c1c(C)cccc1C)C2 [YKL-06-061, 1-cyclobutyl-3-(2,6-dimethylphenyl)-7-(2-methoxy-4-(4-methylpiperazin-1-yl)phenylamino)-3,4-dihydropyrimido[4,5-d]pyrimidin-2(1H)-one]	induces Mitf expression	increased	dose dependent increase		Darkens	Darkens	induced significant pigmentation	increased melanin content	as efficacious in inducing the pigmentation pathway as HG 9-91-01	comparable	S(1) score ([8]; concentration of 1 pM): 0.02; Number of kinases displaying tight binding (Ambit scores of less than or equal to 1) ([8]; concentration of 1 µM): 16; Kinase selectivity in enzymatic assays [10]: only inhibited one kinase (FRK) stronger than SIKs
Cc1cccc(C)c1N1Cc2cnc(Nc3ccc(N4CCN(C)CC4)cc3)nc2N(C2CCCCC2)C1=O [YKL-06-062, 1-cyclohexyl-3-(2,6-dimethylphenyl)-7-(4-(4-methylpiperazin-1-yl)phenylamino)-3,4-dihydropyrimido[4,5-d]pyrimidin-2(1H)-one]	induces Mitf expression	increased	dose dependent increase		Darkens	Darkens	induced significant pigmentation	increased melanin content	as efficacious in inducing the pigmentation pathway as HG 9-91-01	comparable	
